Among the data in patent US7994204B2, “Binding inhibitor of sphingosine-1-phosphate” (Taisho Pharmaceutical Co., Ltd, priority 2006, dated 2011) are inhibition and IC50 values, retold here.

In general, inhibition refers to the relative decrease from the control value, in per cent. Broadly, the IC50 is the point on the concentration scale where inhibition reaches its midpoint. A lower IC50 goes with greater potency in that assay.

Some results are limits rather than exact numbers.

T1 sequence (P21453 whole entry): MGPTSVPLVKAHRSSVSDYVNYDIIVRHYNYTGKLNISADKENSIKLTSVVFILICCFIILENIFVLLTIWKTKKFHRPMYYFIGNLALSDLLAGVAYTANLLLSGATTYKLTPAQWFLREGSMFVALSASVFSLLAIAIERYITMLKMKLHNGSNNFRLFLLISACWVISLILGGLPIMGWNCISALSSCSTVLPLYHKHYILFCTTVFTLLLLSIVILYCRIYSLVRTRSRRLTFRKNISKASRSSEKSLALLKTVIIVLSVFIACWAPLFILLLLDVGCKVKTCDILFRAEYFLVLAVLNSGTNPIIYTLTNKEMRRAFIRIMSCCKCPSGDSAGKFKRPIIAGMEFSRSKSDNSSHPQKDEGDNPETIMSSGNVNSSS

One experiment concerns the target T1, human Edg-1 (S1P1) (Homo sapiens, UniProt P21453).
T1 construct: expressed in transfected cells; host or cells: HEK-293
Briefly: S1P1 binding inhibition test (membrane, [33P]-S1P). The following applies: compound 10 μM; [33P]-S1P 0.1 nM; human Edg-1 (S1P1) HEK-293 membrane fraction; read-out: Binding test (membrane) % inhibition (10 μM). The procedure:
The membrane fraction was obtained by treating the cells with a solubilizing buffer (1 mM Tris/HCl, pH 7.2) for 10 minutes on ice, centrifuging at 1000×g for 5 minutes to remove insoluble fractions, and then centrifuging at 40000×g for 30 minutes at 4° C. The resulting membrane fraction was dissolved in a binding buffer (20 mM Tris-HCl, pH 7.4, 100 mM NaCl, 15 mM NaF, 2 mM deoxypyridoxine, 4 mg/mL fatty acid-free BSA), and then [^33P]-S1P (manufactured by ARC, final concentration 0.1 nM) and a DMSO solution (final concentration of the compound 10^−5 M, final concentration of DMSO 0.1%) of the test compound were added. Thereafter, the mixture was stirred and then treated for one hour at 30° C. Using a harvester, the membrane fraction was harvested onto unifilter-96 GF/C filter (manufactured by Perkin Elmer), washing was carried out four times with the binding buffer, and the filter was dried. Twenty five μL Microscint 0 (manufactured by Perkin Elmer) was added, and radioactivity was measured using Top Count NXT (manufactured by Packard) to calculate the amount (A) of [^33P]-S1P bound to the membrane fraction at the time when the compound was added.
The same procedure was carried out in the absence of the test compound, and the amount (B) of [^33P]-S1P bound was calculated. Further, the same procedure was carried out in the absence of the test compound by use of HEK-293 cells to which no Edg-1 (S1P1) gene was introduced, and the background amount (C) of [^33P]-S1P bound was calculated.
Inhibition rate (%)=[1−(A−C)/(B−C)]×100.
Moreover, the concentration required for a test compound to produce 50% inhibition of the binding caused in the absence of the test compound was also calculated (IC50). The above membrane system binding test was performed in the presence of a test compound at various concentrations to calculate the inhibition rate of Edg-1(S1P1) binding at each concentration according to the above equation, followed by calculating an IC50 value for each compound with data analysis software, Origin (Lightstone Corp., Japan).
Take `CCn1c(C(C)NS(=O)(=O)c2ccc(C(C)=O)cc2)cnc1Oc1ccc(C)cc1` (centres unmarked) [Compound 3]: the inhibition at 10 µM stood at 96.7%.
Regarding `CCn1c(C(C)NS(=O)(=O)c2ccc(I)cc2)cnc1Oc1ccc(C)cc1` (centres unmarked) [Compound 31], the inhibition at 10 µM amounted to 93.3%.
As to `CCn1c(C(C)NS(=O)(=O)c2cc3ccccc3s2)cnc1Oc1ccc(C)cc1` (centres unmarked) [Compound 177], the inhibition at 10 µM turned out to be 77.7%.
Turning to `CCn1c(C(C)NS(=O)(=O)c2ccc(-c3csnn3)s2)cnc1Oc1ccc(C)cc1` (centres unmarked) [Compound 46], the inhibition at 10 µM amounted to 58.8%.
On the same count and under the same terms, as for `CCn1c(C(C)NS(=O)(=O)c2cc(OC)ccc2OC)cnc1Oc1ccc(C)cc1` (centres unmarked) [Compound 81], the figure is 83.1%; as for `CCn1c(C(C)NS(=O)(=O)c2ccc(Br)c(Br)c2)cnc1Oc1ccc(C)cc1` (centres unmarked) [Compound 72], 90.1%.
On the same count and under the same terms, as for `CCn1c(C(C)NS(=O)(=O)c2ccc(C#N)cc2Cl)cnc1Oc1ccc(C)cc1` (centres unmarked) [Compound 89], the figure is 71.8%; as for `CCn1c(C(C)NS(=O)(=O)c2ccc(Cl)c(Cl)c2)cnc1Oc1ccc2cc[nH]c2c1` (centres unmarked) [Compound 250, 3,4-Dichloro-N-{1-[3-ethyl-2-(1H-indol-6-yloxy)-3H-imidazol-4-yl]-ethyl}-benzenesulfonamide], 101%.
Same read-out and setting: as for `CCn1c(C(C)NS(=O)(=O)c2cccc(F)c2)cnc1Oc1ccc(C)cc1` (centres unmarked) [Compound 105], the figure is 84.2%; as for `CCn1c(C(C)NS(=O)(=O)c2cc(F)cc(Cl)c2C)cnc1Oc1ccc(C)cc1` (centres unmarked) [Compound 86], 74.4%; as for `CCn1c(C(C)NS(=O)(=O)c2ccc(Cl)c(Cl)c2)cnc1Oc1ccc(Cl)cc1` (centres unmarked) [Compound 189, 3,4-Dichloro-N-{1-[3-ethyl-2-(4-chlorophenoxy)-3H-imidazol-4-yl]-ethyl}-benzenesulfonamide], 97.2%.
Consider `CCn1c(C(C)NS(=O)(=O)c2ccc(C(C)(C)C)cc2)cnc1Oc1ccc(C)cc1` (centres unmarked) [Compound 6], for which the inhibition at 10 µM was determined as 54.7%.
Take `CCn1c(C(C)NS(=O)(=O)c2ccc(Cl)c(Cl)c2)cnc1Oc1cccc(N2CCN(C)CC2)c1` (centres unmarked) [Compound 184, 3,4-Dichloro-N-(1-{3-ethyl-2-[3-(4-methylpiperazin-1-yl)-phenoxy]-3H-imidazol-4-yl}-ethyl)-benzenesulfonamide]: the inhibition at 10 µM came out at 95.3%.
The same measure, in the same setting: as for `CCn1c(C(C)NS(=O)(=O)c2cccc(C#N)c2)cnc1Oc1ccc(C)cc1` (centres unmarked) [Compound 13], the figure is 64.4%; as for `CCn1c(C(C)NS(=O)(=O)c2cccc(OC)c2)cnc1Oc1ccc(C)cc1` (centres unmarked) [Compound 66], 89.9%.
Same read-out and setting: next, `CCn1c(C(C)NS(=O)(=O)c2cc(F)c(F)cc2Cl)cnc1Oc1ccc(C)cc1` (centres unmarked) [Compound 93]: 75.2%; `CCn1c(C(C)NS(=O)(=O)c2ccc(Br)cc2Cl)cnc1Oc1ccc(C)cc1` (centres unmarked) [Compound 130]: 77.5%.
With `CCn1c(C(C)NS(=O)(=O)c2ccc(Br)cc2F)cnc1Oc1ccc(C)cc1` (centres unmarked) [Compound 95], the inhibition at 10 µM worked out at 80.1%.
With `CCn1c(C(C)NS(=O)(=O)c2ccc(F)c(Cl)c2)cnc1Oc1ccc(C)cc1` (centres unmarked) [Compound 65], the inhibition at 10 µM turned out to be 106%.
In the case of `CCn1c(C(C)NS(=O)(=O)c2ccc(C(F)(F)F)cc2Cl)cnc1Oc1ccc(C)cc1` (centres unmarked) [Compound 158], the inhibition at 10 µM was 57%.
On the same count and under the same terms, next, `CCn1c(C(C)NS(=O)(=O)/C=C/c2ccccc2)cnc1Oc1ccc(C)cc1` (centres unmarked) [Compound 32]: 93.5%; `CCn1c(C(C)NS(=O)(=O)c2cc(F)c(F)cc2F)cnc1Oc1ccc(C)cc1` (centres unmarked) [Compound 109]: 81.3%; `CCn1c(C(C)NS(=O)(=O)c2c(F)cc(F)cc2Br)cnc1Oc1ccc(C)cc1` (centres unmarked) [Compound 118]: 62.5%.
The same measure, in the same setting: next, `CCn1c(C(C)NS(=O)(=O)c2ccc(Br)c(C(F)(F)F)c2)cnc1Oc1ccc(C)cc1` (centres unmarked) [Compound 172]: 75.9%.
On the same count and under the same terms, as for `CCn1c(C(C)NS(=O)(=O)c2cc(C)oc2C(F)(F)F)cnc1Oc1ccc(C)cc1` (centres unmarked) [Compound 143], the figure is 58.8%; as for `CCn1c(C(C)NS(=O)(=O)c2ccc(F)cc2F)cnc1Oc1ccc(C)cc1` (centres unmarked) [Compound 80], 61.2%.
Turning to `CCn1c(C(C)NS(=O)(=O)c2ccccc2)cnc1Oc1ccc(C)cc1` (centres unmarked) [Compound 4], the inhibition at 10 µM stood at 72.8%.
In the case of `CCn1c(C(C)NS(=O)(=O)c2c(F)c(F)c(F)c(F)c2F)cnc1Oc1ccc(C)cc1` (centres unmarked) [Compound 30], the inhibition at 10 µM came to 75.8%.
On the same count and under the same terms, next, `CCn1c(C(C)NS(=O)(=O)c2ccc(Br)cc2OC(F)(F)F)cnc1Oc1ccc(C)cc1` (centres unmarked) [Compound 10]: 68.6%.
For the compound `CCn1c(C(C)NS(=O)(=O)c2ccc(Cl)c(Cl)c2)cnc1Oc1cccc(-n2cccc2)c1` (centres unmarked) [Compound 249, 3,4-Dichloro-N-{1-[3-ethyl-2-(3-pyrrol-1-yl-phenoxy)-3H-imidazol-4-yl]-ethyl}-benzenesulfonamide], the inhibition at 10 µM amounted to 100%.
On the same count and under the same terms, as for `CCc1ccc(S(=O)(=O)NC(C)c2cnc(Oc3ccc(C)cc3)n2CC)cc1` (centres unmarked) [Compound 21], the figure is 66.8%; as for `CCc1ccc(OC)c(S(=O)(=O)NC(C)c2cnc(Oc3ccc(C)cc3)n2CC)c1` (centres unmarked) [Compound 166], 80.7%; as for `CCn1c(C(C)NS(=O)(=O)c2ccc(F)c(F)c2F)cnc1Oc1ccc(C)cc1` (centres unmarked) [Compound 90], 78.6%.
Still for that read-out and setting: as for `CCn1c(C(C)NS(=O)(=O)c2ccc(C)c(Cl)c2)cnc1Oc1ccc(C)cc1` (centres unmarked) [Compound 15], the figure is 108%; as for `CCn1c(C(C)NS(=O)(=O)c2ccc(F)c(C#N)c2)cnc1Oc1ccc(C)cc1` (centres unmarked) [Compound 114], 96.8%; as for `CCn1c(C(C)NS(=O)(=O)c2cc(F)c(F)c(F)c2)cnc1Oc1ccc(C)cc1` (centres unmarked) [Compound 121], 101%.
Take `CCn1c(C(C)NS(=O)(=O)c2cc(C(F)(F)F)cc(C(F)(F)F)c2)cnc1Oc1ccc(C)cc1` (centres unmarked) [Compound 62]: the inhibition at 10 µM is 85.6%.
The same measure, in the same setting: as for `CCn1c(C(C)NS(=O)(=O)c2cc(F)cc(F)c2)cnc1Oc1ccc(C)cc1` (centres unmarked) [Compound 119], the figure is 91.1%; as for `CCn1c(C(C)NS(=O)(=O)c2c(C)c(C)c(C)c(C)c2C)cnc1Oc1ccc(C)cc1` (centres unmarked) [Compound 71], 72%; as for `CCn1c(C(C)NS(=O)(=O)c2cc(Cl)c(Cl)cc2Cl)cnc1Oc1ccc(C)cc1` (centres unmarked) [Compound 33], 115%.
The same measure, in the same setting: as for `CCn1c(C(C)NS(=O)(=O)c2ccc(F)cc2Br)cnc1Oc1ccc(C)cc1` (centres unmarked) [Compound 123], the figure is 70.6%.
With `CCn1c(C(C)NS(=O)(=O)c2cc(F)ccc2C)cnc1Oc1ccc(C)cc1` (centres unmarked) [Compound 70], the inhibition at 10 µM amounted to 56.8%.
As to `CCn1c(C(C)NS(=O)(=O)c2cc(F)c(Cl)cc2F)cnc1Oc1ccc(C)cc1` (centres unmarked) [Compound 96], the inhibition at 10 µM came out at 80.4%.
In the case of `CCn1c(C(C)NS(=O)(=O)c2cccc3nsnc23)cnc1Oc1ccc(C)cc1` (centres unmarked) [Compound 146], the inhibition at 10 µM amounted to 57.8%.
As for `CCn1c(C(C)NS(=O)(=O)c2ccc(Cl)c(Cl)c2)cnc1Sc1ccc(C)cc1` (centres unmarked) [Compound 241, 3,4-Dichloro-N-[1-(3-ethyl-2-p-tolylsulfanyl-3H-imidazol-4-yl)-ethyl]-benzenesulfonamide], the inhibition at 10 µM stood at 82.6%.
Same read-out and setting: as for `CCn1c(C(C)NS(=O)(=O)c2ccc(C)cc2)cnc1Oc1ccc(C)cc1` (centres unmarked) [Compound 35], the figure is 98.1%; as for `CCn1c(C(C)NS(=O)(=O)c2cc(C)ccc2C)cnc1Oc1ccc(C)cc1` (centres unmarked) [Compound 45], 85.8%; as for `CCn1c(C(C)NS(=O)(=O)c2cccc(Cl)c2F)cnc1Oc1ccc(C)cc1` (centres unmarked) [Compound 135], 83.4%.
The same measure, in the same setting: next, `CCn1c(C(C)NS(=O)(=O)c2cc(C)cc(C)c2)cnc1Oc1ccc(C)cc1` (centres unmarked) [Compound 115]: 92.9%; `CC[C@H](NS(=O)(=O)c1ccc(Cl)c(Cl)c1)c1cnc(Oc2ccc(F)cc2)n1CC` [Compound 254, (S)-(−)-3,4-Dichloro-N-{1-[3-ethyl-2-(4-fluorophenoxy)-3H-imidazol-4-yl]-propyl}-benzenesulfonamide]: 68.6%; `CCn1c(C(C)NS(=O)(=O)c2ccc(F)cc2)cnc1Oc1ccc(C)cc1` (centres unmarked) [Compound 22]: 92.1%.
For the compound `CCn1c(C(C)NS(=O)(=O)c2sc3ccc(Cl)cc3c2C)cnc1Oc1ccc(C)cc1` (centres unmarked) [Compound 14], the inhibition at 10 µM is 76.5%.

Staying with this experiment, now noted: membrane system binding test, various concentrations.
The compound `CCn1c(C(C)NS(=O)(=O)c2ccc(Cl)c(Cl)c2)cnc1Oc1ccc2cc[nH]c2c1` (centres unmarked) [Compound 250, 3,4-Dichloro-N-{1-[3-ethyl-2-(1H-indol-6-yloxy)-3H-imidazol-4-yl]-ethyl}-benzenesulfonamide] yielded an IC50 of 20.5 nM.
Same read-out and setting: as for `CCn1c(C(C)NS(=O)(=O)c2ccc(Cl)c(Cl)c2)cnc1Oc1ccc(Cl)cc1` (centres unmarked) [Compound 189, 3,4-Dichloro-N-{1-[3-ethyl-2-(4-chlorophenoxy)-3H-imidazol-4-yl]-ethyl}-benzenesulfonamide], the figure is no more than 70 nM; as for `CCn1c(C(C)NS(=O)(=O)c2ccc(Cl)c(Cl)c2)cnc1Oc1cccc(N2CCN(C)CC2)c1` (centres unmarked) [Compound 184, 3,4-Dichloro-N-(1-{3-ethyl-2-[3-(4-methylpiperazin-1-yl)-phenoxy]-3H-imidazol-4-yl}-ethyl)-benzenesulfonamide], 14.3 nM.

Still in this experiment, the particulars now being: read-out: Binding test (membrane) % inhibition (10 μM).
As for `CCn1c(C(C)NS(=O)(=O)c2ccc(F)cc2Cl)cnc1Oc1ccc(C)cc1` (centres unmarked) [Compound 82], the inhibition at 10 µM came out at 64.2%.
